pIC50: −log10 of the molar value.

The values that follow come from patent US10328066B2, “Pharmaceutical combination comprising the PI3K inhibitor alpelisib and the CDK4/6 inhibitor ribociclib, and the use thereof in the treatment/prevention of cancer” (Novartis AG, priority 2015, dated 2019).

Format in all cases: cell-based
For assay [1], the system named is 15 colorectal cancer cell lines. As to the kind of experiment: In vitro proliferation, summary over the cell line panel. Particulars: single agents. As to the method: (§1) COMPOUNDS A, B, and C were dissolved in 100% DMSO (Sigma, Catalog number D2650) at concentrations of 20 mM and stored at −20° C. until use. Compounds were arrayed in drug master plates (Greiner, Catalog number 788876) and serially diluted 3-fold (7 steps) at 2000× concentration.
(§2) Colorectal cancer cell lines used for this study were obtained, cultured and processed from commercial vendors ATCC, CellBank Australia, DMSZ, ECACC, and HSRRB (Table 1). All cell line media were supplemented with 10% FBS (HyClone, Catalog number SH30071.03). Media for LIM2551 was additionally supplemented with 0.6 μg/mL Insulin (SIGMA, Catalog number 19278), 1 μg/mL Hydrocortisone (SIGMA, Catalog number H0135), and 10 μM 1-Thioglycerol (SIGMA, Catalog number M6145).
(§3) Cell lines were cultured in 37° C. and 5% CO2 incubator and expanded in T-75 flasks. In all cases cells were thawed from frozen stocks, expanded through ≥1 passage using 1:3 dilutions, counted and assessed for viability using a ViCell counter (Beckman-Coulter) prior to plating. To split and expand cell lines, cells were dislodged from flasks using 0.25% Trypsin-EDTA (GIBCO, Catalog number 25200). All cell lines were determined to be free of mycoplasma contamination as determined by a PCR detection methodology performed at Idexx Radil (Columbia, Mo., USA) and correctly identified by detection of a panel of SNPs.
To test the effect of the combination of COMPOUND A, COMPOUND B, and COMPOUND C on cell proliferation cells were plated in black 384-well microplates with clear bottom (Matrix/Thermo Scientific, Catalog number 4332) in 50 μL media per well at cell densities between 500 and 1250 cells/well (Table 1) and allowed to incubate at 37 degrees, 5% CO2 for 24 h. […] Caspase 3/7 induction was measured as a proxy for apoptosis induced by the treatments. Cells were treated for 72 h to 96 h depending on their doubling time (Table 1), and Caspase 3/7 activation was measured every 24 h by microscopy using an InCell Analyzer 2000 (GE Healthcare) equipped with a 4× objective and FITC excitation/emission filters. […]

The next assay deals with SW480. The experiment in a line: In vitro proliferation (cell count by microscopy), single agents and combination. The conditions noted are these: Homo sapiens; SW480 (KRAS), 72 h treatment; 50% of cell counts relative to DMSO. As to the method:
as §1, §2, §3
(§4) To test the effect of the combination of COMPOUND A, COMPOUND B, and COMPOUND C on cell proliferation cells were plated in black 384-well microplates with clear bottom (Matrix/Thermo Scientific, Catalog number 4332) in 50 μL media per well at cell densities between 500 and 1250 cells/well (Table 1) and allowed to incubate at 37 degrees, 5% CO2 for 24 h. After 24 h one 384-well plate per cell line was prepared for cell counting by microscopy (see below) without receiving treatment (=‘baseline’). The other cell plates were treated by transferring 25 nL of the 2000× compound from drug master plates using an ATS acoustic liquid dispenser (ECD Biosystems) and resulting in a final 1× concentration. COMPOUND A was used over a final concentration range of 13 nM-10 μM, COMPOUND B was used over a final concentration range of 13 nM-10 μM, and COMPOUND C was used over a final concentration range of 27 nM-20 μM (7 1:3 dilution steps). In order to assess the effect of the triple combination all individual COMPOUNDS (A, B, C), all three pair wise combinations (A+B, A+C, B+C), and the triple combination (A+B+C) were tested in the same experiment. Pair wise combinations and the triple combination were tested at a fixed ratio of 1:1 (for drug pairs) and 1:1:1 (for the drug triple) at each dilution resulting in 7 combination conditions per treatment. […] After compound addition 50 nL of 2 mM CellEvent Caspase-3/7 Green Detection Reagent (ThermoFisher, Catalog number C10423) were added to one of the three replicates using the HP D300 Digital Dispenser (Tecan). Caspase 3/7 induction was measured as a proxy for apoptosis induced by the treatments. Cells were treated for 72 h to 96 h depending on their doubling time (Table 1), and Caspase 3/7 activation was measured every 24 h by microscopy using an InCell Analyzer 2000 (GE Healthcare) equipped with a 4× objective and FITC excitation/emission filters. At the end of the treatment cells were prepared for cell counting by microscopy. Cells were fixed and permeabilised for 45 minutes in 4% PFA (Electron Microscopy Sciences, Catalog number 15714), 0.12% TX-100 (Electron Microscopy Sciences, Catalog number 22140) in PBS (Boston Bioproducts, Catalog number BM-220). After washing cells three times with PBS their DNA was stained for 30 minutes with Hoechst 33342 (ThermoFisher, Catalog number H3570) at a final concentration of 4 μg/mL. Cells were washed three times with PBS and then plates were heat-sealed using a PlateLoc (Agilent Technologies) with aluminum seals (Agilent Technologies, Catalog number 06644-001) and stored at 4° C. until imaging. […]

The next assay relates to COLO-320. Described as above. The conditions noted are these: Homo sapiens; COLO-320 (no driver mutation listed), 72 h treatment; 50% of cell counts relative to DMSO. Here is the method:
as §1, §2, §3, §4

Another assay has as its system LS-180. Described as above. The conditions noted are these: Homo sapiens, LS180; LS-180 (KRAS, PIK3CA), 72 h treatment; 50% of cell counts relative to DMSO. Here is the method: as §1, §2, §3, §4
Another assay has as its system NCI-H508. The assay is described as above. The conditions noted are these: Homo sapiens; NCI-H508 (PIK3CA), 72 h treatment; 50% of cell counts relative to DMSO. Here is the method: as §1, §2, §3, §4
A further assay has as its system LoVo. Described as above. The conditions noted are these: Homo sapiens; LoVo (KRAS), 96 h treatment; 50% of cell counts relative to DMSO. Here is the method:
as §1, §2, §3, §4

In a further assay the test system is DLD-1. The assay is described as above. Particulars: Homo sapiens; DLD-1 (KRAS, PIK3CA), 72 h treatment; 50% of cell counts relative to DMSO. Here is the method:
as §1, §2, §3, §4

The next assay deals with GP2d. Described as above. Particulars: GP2d (KRAS, PIK3CA), 72 h treatment; 50% of cell counts relative to DMSO. Here is the method: as §1, §2, §3, §4
Another assay has as its system HT-29. The description is as above. The conditions noted are these: Homo sapiens; HT-29 (BRAF, PIK3CA), 72 h treatment; 50% of cell counts relative to DMSO. Here is the method: as §1, §2, §3, §4
Another assay relates to COLO-205. The assay is described as above. The conditions noted are these: Homo sapiens; COLO-205 (BRAF), 72 h treatment; 50% of cell counts relative to DMSO. As to the method: as §1, §2, §3, §4
In another assay the test system is SW837. Described as above. The conditions noted are these: Homo sapiens; SW837 (KRAS), 72 h treatment; 50% of cell counts relative to DMSO. As to the method: as §1, §2, §3, §4
A further assay has as its system RKO. Described as above. The conditions noted are these: Homo sapiens; RKO (BRAF, PIK3CA), 72 h treatment; 50% of cell counts relative to DMSO. As to the method:
as §1, §2, §3, §4

The test system of the next assay is LIM2551. The description is as above. Particulars: LIM2551 (BRAF, PIK3CA), 72 h treatment; 50% of cell counts relative to DMSO. Here is the method:
as §1, §2, §3, §4

For a further assay, the system named is HCT-116. The description is as above. Particulars: Homo sapiens; HCT-116 (KRAS, PIK3CA), 72 h treatment; 50% of cell counts relative to DMSO. As to the method:
as §1, §2, §3, §4

For the next assay, the system named is LS411N. The description is as above. The conditions noted are these: Homo sapiens, LS-411N; LS411N (BRAF), 72 h treatment; 50% of cell counts relative to DMSO. As to the method:
as §1, §2, §3, §4

Another assay relates to OUMS-23. The description is as above. The conditions noted are these: OUMS-23 (BRAF), 72 h treatment; 50% of cell counts relative to DMSO. Here is the method:
as §1, §2, §3, §4

With `Cc1nc(NC(=O)N2CCC[C@H]2C(N)=O)sc1-c1ccnc(C(C)(C)C(F)(F)F)c1` [COMPOUND A, (S)-Pyrrolidine-1,2-dicarboxylic acid 2-amide 1-({4-methyl-5-[2-(2,2,2-trifluoro-1,1-dimethyl-ethyl)-pyridin-4-yl]-thiazol-2-yl}-amide)], the “IC50 values across the cell lines (summary in words)” value (“IC50 values across the cell lines” for short) in assay [1] is “mostly micromolar IC50 values”.

For the molecule `CN(C)C(=O)c1cc2cnc(Nc3ccc(N4CCNCC4)cn3)nc2n1C1CCCC1` [COMPOUND B, 7-Cyclopentyl-2-(5-piperazin-1-yl-pyridin-2-ylamino)-7H-pyrrolo[2,3-d]pyrimidine-6-carboxylic acid dimethylamide], the “IC50 values across the cell lines” value in assay [1] is given as “mostly micromolar IC50 values”.

By pIC50 is commonly meant the IC50 on a negative log10 scale, so that one unit is a factor of ten. Turning to `O=c1[nH]cc(F)c(=O)[nH]1` [COMPOUND C, 5-fluoro-2,4-(1H,3H) pyrimidinedione], the “IC50 values across the cell lines” value in assay [1] is reported as “micromolar IC50s in all but one cell line (SW480)”. Moreover, the pIC50 in the assay on SW480 is below 4.70; with COLO-320 it was 5.62; with LS-180, 4.85; in the assay on NCI-H508, 5.48; with LoVo it was 5.25; in the assay with DLD-1 it was 5.18. For the same molecule, the pIC50 in the assay with GP2d was 5.49; in the assay on HT-29, 5.13; in the assay with COLO-205, 6.22; in the assay with SW837, 5.11; in the assay with RKO, 5.68; with LIM2551, 5.38. The pIC50 was 5.25 in the assay with HCT-116, 5.39 in the assay on LS411N and 4.98 in the assay with OUMS-23.
